From paper PMC12655637, “Design, Synthesis, and Mechanistic Study of Novel Ciprofloxacin/Thiazole Chalcone Hybrids as Potential Anticancer Agents” (Pharmaceuticals, 2025)

Assays:
Experiment in all cases: NCI-60 screening, one-dose (10 µM) and five-dose, SRB
CCRF-CEM = type: cell-based, human; settings: Homo sapiens, 10 μM, Leukemia, read-out: Growth percentage
K-562 = type: cell-based, human; settings: Homo sapiens, K562, 10 μM; K-562, Leukemia; read-out: Growth percentage
RPMI-8226 = type: cell-based, human; settings: Homo sapiens, RPMI-8226, 10 μM; RPMI-8226, Leukemia; read-out: Growth percentage
SR = type: cell-based, human; settings: 10 μM, Leukemia
EKVX = type: cell-based, human; settings: Homo sapiens, 10 μM, Non-Small-Cell Lung Cancer, read-out: Growth percentage
HOP-92 = type: cell-based, human; settings: Homo sapiens; 10 μM; HOP-92, Non-Small-Cell Lung Cancer; read-out: Growth percentage
NCI-H226 = type: cell-based, human; settings: Homo sapiens; 10 μM; NCI-H226, Non-Small-Cell Lung Cancer; read-out: Growth percentage
NCI-H23 = type: cell-based, human; settings: Homo sapiens; 10 μM; NCI-H23, Non-Small-Cell Lung Cancer; read-out: Growth percentage
NCI-H460 = type: cell-based, human; settings: Homo sapiens, NCI-H460, 10 μM; NCI-H460, Non-Small-Cell Lung Cancer; read-out: Growth percentage
COLO 205 = type: cell-based, human; settings: Homo sapiens; 10 μM; COLO 205, Colon Cancer; read-out: Growth percentage
HCC-2998 = type: cell-based, human; settings: Homo sapiens; 10 μM; HCC-2998, Colon Cancer; read-out: Growth percentage
HCT-116 = type: cell-based, human; settings: Homo sapiens, HCT-116, 10 μM; HCT-116, Colon Cancer; read-out: Growth percentage
KM12 = type: cell-based, human; settings: Homo sapiens, KM12, 10 μM; KM12, Colon Cancer; read-out: Growth percentage
SW-620 = type: cell-based, human; settings: Homo sapiens; 10 μM; SW-620, Colon Cancer; read-out: Growth percentage
SF-268 = type: cell-based, human; settings: Homo sapiens; 10 μM; SF-268, CNS Cancer; read-out: Growth percentage
SF-295 = type: cell-based, human; settings: Homo sapiens; 10 μM; SF-295, CNS Cancer; read-out: Growth percentage
SK-MEL-2 = type: cell-based, human; settings: Homo sapiens; 10 μM; SK-MEL-2, Melanoma; read-out: Growth percentage
UACC-257 = type: cell-based, human; settings: Homo sapiens; 10 μM; UACC-257, Melanoma; read-out: Growth percentage
OVCAR-4 = type: cell-based, human; settings: Homo sapiens; 10 μM; OVCAR-4, Ovarian Cancer; read-out: Growth percentage
786−0 = type: cell-based, human; settings: Homo sapiens; 10 μM; 786−0, Renal Cancer; read-out: Growth percentage
ACHN = type: cell-based, human; settings: Homo sapiens, 10 μM, Renal Cancer, read-out: Growth percentage
CAKI-1 = type: cell-based; settings: Homo sapiens; 10 μM; CAKI-1, Renal Cancer; read-out: Growth percentage
RXF 393 = type: cell-based; settings: Homo sapiens; 10 μM; RXF 393, Renal Cancer; read-out: Growth percentage
SN12C = type: cell-based, human; settings: Homo sapiens, 10 μM, Renal Cancer, read-out: Growth percentage
TK-10 = type: cell-based, human; settings: Homo sapiens; 10 μM; TK-10, Renal Cancer; read-out: Growth percentage
DU-145 = type: cell-based, human; settings: Homo sapiens; 10 μM; DU-145, Prostate Cancer; read-out: Growth percentage
MCF7 = type: cell-based, human; settings: Homo sapiens, MCF7, 10 μM; MCF7, Breast Cancer; read-out: Growth percentage
MDA-MB231/ATCC = type: cell-based; settings: 10 μM; MDA-MB231/ATCC, Breast Cancer
HS 578T = type: cell-based, human; settings: Homo sapiens, 10 μM, Breast Cancer, read-out: Growth percentage
MDA-MB-468 = type: cell-based, human; settings: Homo sapiens, MDA-MB-468, 10 μM; MDA-MB-468, Breast Cancer; read-out: Growth percentage
From the text: Control cells Test cells FLD
available usually at NCI library.
An aliquot of frozen drug concentrate is […]

| SMILES | activity at 10 µM (CCRF-CEM) [%] | activity at 10 µM (K-562) [%] | activity at 10 µM (RPMI-8226) [%] | Growth percentage (SR) [%] | activity at 10 µM (EKVX) [%] | activity at 10 µM (HOP-92) [%] | activity at 10 µM (NCI-H226) [%] | activity at 10 µM (NCI-H23) [%] | activity at 10 µM (NCI-H460) [%] | activity at 10 µM (COLO 205) [%] | activity at 10 µM (HCC-2998) [%] | activity at 10 µM (HCT-116) [%] | activity at 10 µM (KM12) [%] | activity at 10 µM (SW-620) [%] | activity at 10 µM (SF-268) [%] | activity at 10 µM (SF-295) [%] | activity at 10 µM (SK-MEL-2) [%] | activity at 10 µM (UACC-257) [%] | activity at 10 µM (OVCAR-4) [%] | activity at 10 µM (786−0) [%] | further results |
| --- | --- | --- | --- | --- | --- | --- | --- | --- | --- | --- | --- | --- | --- | --- | --- | --- | --- | --- | --- | --- | --- |
| Cc1nc(SCC(=O)N2CCN(c3cc4c(cc3F)c(=O)c(C(=O)O)cn4C3CC3)CC2)sc1C(=O)/C=C/c1ccc([N+](=O)[O-])cc1 [Compound 4h, (E)-1-Cyclopropyl-6-fluoro-7-(4-(2-((4-methyl-5-(3-(4-nitrophenyl)acryloyl)thiazol-2-yl)thio)acetyl)piperazin-1-yl)-4-oxo-1,4-dihydroquinoline-3-carboxylic Acid] | 45.7 | 28.9 | 16.3 | 23.8 | 113 | 126 | 87.9 | 73.2 | 99.4 | 95.9 | 71.9 | 33.8 | 54.4 | 78.2 | 81.1 | 116 | 87.7 | 82.6 | 89.2 | 87.6 | activity at 10 µM (ACHN): 96.7%; activity at 10 µM (CAKI-1): 116%; activity at 10 µM (RXF 393): 89.5%; activity at 10 µM (SN12C): 78.3%; activity at 10 µM (TK-10): 116%; activity at 10 µM (DU-145): 85.3%; activity at 10 µM (MCF7): 7.2%; Growth percentage (MDA-MB231/ATCC): 94.5%; activity at 10 µM (HS 578T): 99.6%; activity at 10 µM (MDA-MB-468): 85.2% |
| Cc1nc(SCC(=O)N2CCN(c3cc4c(cc3F)c(=O)c(C(=O)O)cn4C3CC3)CC2)sc1C(=O)/C=C/c1ccc(N(C)C)cc1 [Compound 4i, (E)-1-Cyclopropyl-7-(4-(2-((5-(3-(4-(dimethylamino)phenyl)acryloyl)-4-methylthiazol-2-yl)thio)acetyl)piperazin-1-yl)-6-fluoro-4-oxo-1,4-dihydroquinoline-3-carboxylic Acid] | 90.6 | 61.3 | 4.7 | 64.5 | 110 | 91.7 | 100 | 76.2 | 108 | 117 | 44.4 | 2.6 | 79.4 | 117 | 140 | 91.4 | 85.5 | 108 | 102 | 59.2 | activity at 10 µM (ACHN): 97.7%; activity at 10 µM (CAKI-1): 81.7%; activity at 10 µM (RXF 393): 90.5%; activity at 10 µM (SN12C): 81.1%; activity at 10 µM (TK-10): 91.8%; activity at 10 µM (DU-145): 147%; activity at 10 µM (MCF7): 17.3%; Growth percentage (MDA-MB231/ATCC): 73.1%; activity at 10 µM (HS 578T): 81.4%; activity at 10 µM (MDA-MB-468): 87.6% |
